Reference: ChEMBL document CHEMBL5465560, “Selectivity Literature for EUbOPEN Chemogenomic Library” (2024)
Each block holds one compound with its values, some of them ahead of it.

How the values were obtained:
[1] = molecular target: Cyclin-dependent kinase 2/cyclin A (Homo sapiens) (UniProt P24941+P20248+P78396); assay: Selectivity interaction (Kinase panel (Z-LYTE Assay)) EUB0001632a CDK2; type: protein-complex assay; conditions: at 10 µM
[2] = molecular target: Cyclin-dependent kinase 5/CDK5 activator 1 (Homo sapiens) (UniProt Q00535+Q15078); assay: Selectivity interaction (Kinase panel (Z-LYTE Assay)) EUB0001632a CDK5; type: protein-complex assay; conditions: at 10 µM
Cyclin-dependent kinase 5/CDK5 activator 1 (Homo sapiens), sequence (Q00535 whole entry): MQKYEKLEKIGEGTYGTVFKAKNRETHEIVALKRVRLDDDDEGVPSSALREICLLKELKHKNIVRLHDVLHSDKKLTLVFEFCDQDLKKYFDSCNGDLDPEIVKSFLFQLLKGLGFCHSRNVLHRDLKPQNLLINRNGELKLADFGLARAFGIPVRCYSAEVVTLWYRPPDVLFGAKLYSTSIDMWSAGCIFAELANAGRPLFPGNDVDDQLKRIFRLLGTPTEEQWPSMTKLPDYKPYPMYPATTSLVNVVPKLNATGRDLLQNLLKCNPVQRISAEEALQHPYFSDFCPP
Cyclin-dependent kinase 5/CDK5 activator 1 (Homo sapiens), sequence (Q15078 99-307 partner limits assumed): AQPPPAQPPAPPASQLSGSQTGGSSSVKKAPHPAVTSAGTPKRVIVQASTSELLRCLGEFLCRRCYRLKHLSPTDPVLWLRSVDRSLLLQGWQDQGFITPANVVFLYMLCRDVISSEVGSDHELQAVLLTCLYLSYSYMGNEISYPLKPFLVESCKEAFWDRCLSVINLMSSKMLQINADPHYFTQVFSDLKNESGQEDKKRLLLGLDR

[3] = molecular target: Serine/threonine-protein kinase tousled-like 2 (Homo sapiens) (UniProt Q86UE8); conditions: at 10 µM
Serine/threonine-protein kinase tousled-like 2 (Homo sapiens), sequence (Q86UE8 whole entry, looked up): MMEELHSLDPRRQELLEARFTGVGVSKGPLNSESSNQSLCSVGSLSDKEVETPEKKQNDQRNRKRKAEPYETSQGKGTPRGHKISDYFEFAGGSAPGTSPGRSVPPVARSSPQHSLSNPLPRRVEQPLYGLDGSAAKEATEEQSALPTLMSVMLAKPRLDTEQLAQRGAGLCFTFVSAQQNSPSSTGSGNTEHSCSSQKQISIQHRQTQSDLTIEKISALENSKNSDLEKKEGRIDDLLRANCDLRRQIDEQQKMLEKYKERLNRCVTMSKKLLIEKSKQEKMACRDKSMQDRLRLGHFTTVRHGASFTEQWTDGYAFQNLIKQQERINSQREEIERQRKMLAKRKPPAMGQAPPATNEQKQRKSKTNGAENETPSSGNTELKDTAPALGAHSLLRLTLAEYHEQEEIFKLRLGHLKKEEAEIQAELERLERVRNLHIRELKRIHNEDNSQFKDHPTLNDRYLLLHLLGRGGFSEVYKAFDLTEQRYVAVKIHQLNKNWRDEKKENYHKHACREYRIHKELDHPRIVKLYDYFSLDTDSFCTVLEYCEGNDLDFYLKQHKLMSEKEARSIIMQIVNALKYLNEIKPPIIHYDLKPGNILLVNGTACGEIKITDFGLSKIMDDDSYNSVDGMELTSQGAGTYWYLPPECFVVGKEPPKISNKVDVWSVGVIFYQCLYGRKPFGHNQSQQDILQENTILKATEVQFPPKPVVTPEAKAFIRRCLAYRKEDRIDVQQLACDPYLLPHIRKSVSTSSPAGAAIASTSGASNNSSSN

[4] = molecular target: Protein kinase C delta type (Homo sapiens) (UniProt Q05655); assay: Selectivity interaction (ActivX KiNativ screen (kinase selectivity in THP-1 cell lysates)) EUB0000639a PRKCD; type: subcellular; conditions: lysate
Protein kinase C delta type (Homo sapiens), sequence (Q05655 whole entry, looked up): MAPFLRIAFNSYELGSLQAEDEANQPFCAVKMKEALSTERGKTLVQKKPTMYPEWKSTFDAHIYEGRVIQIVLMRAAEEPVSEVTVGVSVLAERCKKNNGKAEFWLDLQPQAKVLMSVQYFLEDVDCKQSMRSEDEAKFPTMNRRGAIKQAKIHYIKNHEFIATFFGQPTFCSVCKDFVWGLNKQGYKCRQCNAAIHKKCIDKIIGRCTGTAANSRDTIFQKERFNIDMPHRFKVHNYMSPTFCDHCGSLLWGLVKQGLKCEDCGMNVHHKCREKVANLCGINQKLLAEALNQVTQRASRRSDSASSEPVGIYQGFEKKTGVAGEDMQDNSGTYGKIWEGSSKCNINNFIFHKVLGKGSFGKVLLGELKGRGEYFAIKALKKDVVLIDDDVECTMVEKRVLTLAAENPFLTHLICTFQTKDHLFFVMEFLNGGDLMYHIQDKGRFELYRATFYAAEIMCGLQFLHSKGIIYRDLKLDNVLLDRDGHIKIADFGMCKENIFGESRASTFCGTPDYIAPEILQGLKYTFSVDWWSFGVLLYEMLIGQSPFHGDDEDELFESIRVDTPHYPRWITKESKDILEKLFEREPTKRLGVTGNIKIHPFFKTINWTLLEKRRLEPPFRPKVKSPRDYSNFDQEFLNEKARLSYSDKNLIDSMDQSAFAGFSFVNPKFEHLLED

[5] = molecular target: Ribosomal protein S6 kinase alpha-3 (Homo sapiens, UniProt P51812); assay: Selectivity interaction (ActivX KiNativ screen (kinase selectivity in THP-1 cell lysates)) EUB0000639a RPS6KA3; type: subcellular; conditions: lysate, at 0.04 µM
Ribosomal protein S6 kinase alpha-3, sequence (P51812 whole entry): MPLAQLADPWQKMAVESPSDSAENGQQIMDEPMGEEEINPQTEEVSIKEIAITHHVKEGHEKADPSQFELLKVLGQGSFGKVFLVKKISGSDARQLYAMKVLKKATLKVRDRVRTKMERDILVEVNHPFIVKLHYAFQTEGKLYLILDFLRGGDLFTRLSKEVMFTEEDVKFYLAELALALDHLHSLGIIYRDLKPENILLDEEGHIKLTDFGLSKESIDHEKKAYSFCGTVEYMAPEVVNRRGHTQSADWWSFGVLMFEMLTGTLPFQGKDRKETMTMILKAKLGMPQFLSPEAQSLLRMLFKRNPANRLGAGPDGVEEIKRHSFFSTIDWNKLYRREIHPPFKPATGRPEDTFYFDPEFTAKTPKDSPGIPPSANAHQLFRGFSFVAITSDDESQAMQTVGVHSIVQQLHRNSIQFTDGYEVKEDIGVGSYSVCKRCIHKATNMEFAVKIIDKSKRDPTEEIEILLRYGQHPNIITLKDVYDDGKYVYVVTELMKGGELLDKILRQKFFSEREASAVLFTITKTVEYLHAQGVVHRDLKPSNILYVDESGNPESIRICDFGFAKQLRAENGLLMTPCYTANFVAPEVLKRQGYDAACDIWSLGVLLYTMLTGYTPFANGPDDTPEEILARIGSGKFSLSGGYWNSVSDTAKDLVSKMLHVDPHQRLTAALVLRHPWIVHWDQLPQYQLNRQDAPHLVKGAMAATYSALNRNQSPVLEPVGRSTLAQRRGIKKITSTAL

[6] = molecular target: Calcium/calmodulin-dependent protein kinase type II subunit delta (Homo sapiens) (UniProt Q13557); assay: Selectivity interaction (ProQinase) EUB0000171b CAMK2D
Calcium/calmodulin-dependent protein kinase type II subunit delta (Homo sapiens), sequence (Q13557 whole entry): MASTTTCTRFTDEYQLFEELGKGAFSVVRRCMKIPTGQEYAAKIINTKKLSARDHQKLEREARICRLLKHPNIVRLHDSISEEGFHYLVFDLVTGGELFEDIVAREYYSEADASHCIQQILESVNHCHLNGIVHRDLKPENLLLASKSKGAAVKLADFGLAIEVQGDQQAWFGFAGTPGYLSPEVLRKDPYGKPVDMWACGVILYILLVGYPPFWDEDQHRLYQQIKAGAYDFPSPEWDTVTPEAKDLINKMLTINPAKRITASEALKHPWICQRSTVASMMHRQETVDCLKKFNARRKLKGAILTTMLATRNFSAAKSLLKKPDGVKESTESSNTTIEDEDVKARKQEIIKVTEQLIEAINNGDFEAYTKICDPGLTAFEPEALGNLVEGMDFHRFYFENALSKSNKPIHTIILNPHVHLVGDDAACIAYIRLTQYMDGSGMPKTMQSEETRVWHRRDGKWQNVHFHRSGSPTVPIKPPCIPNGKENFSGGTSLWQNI

[7] = molecular target: T1, Serine/threonine-protein kinase ULK2 (Homo sapiens) (UniProt Q8IYT8); assay: Selectivity interaction (KinomeScan (DiscoverX)) EUB0001049a ULK2; conditions: at 1 µM
T1 sequence (whole entry): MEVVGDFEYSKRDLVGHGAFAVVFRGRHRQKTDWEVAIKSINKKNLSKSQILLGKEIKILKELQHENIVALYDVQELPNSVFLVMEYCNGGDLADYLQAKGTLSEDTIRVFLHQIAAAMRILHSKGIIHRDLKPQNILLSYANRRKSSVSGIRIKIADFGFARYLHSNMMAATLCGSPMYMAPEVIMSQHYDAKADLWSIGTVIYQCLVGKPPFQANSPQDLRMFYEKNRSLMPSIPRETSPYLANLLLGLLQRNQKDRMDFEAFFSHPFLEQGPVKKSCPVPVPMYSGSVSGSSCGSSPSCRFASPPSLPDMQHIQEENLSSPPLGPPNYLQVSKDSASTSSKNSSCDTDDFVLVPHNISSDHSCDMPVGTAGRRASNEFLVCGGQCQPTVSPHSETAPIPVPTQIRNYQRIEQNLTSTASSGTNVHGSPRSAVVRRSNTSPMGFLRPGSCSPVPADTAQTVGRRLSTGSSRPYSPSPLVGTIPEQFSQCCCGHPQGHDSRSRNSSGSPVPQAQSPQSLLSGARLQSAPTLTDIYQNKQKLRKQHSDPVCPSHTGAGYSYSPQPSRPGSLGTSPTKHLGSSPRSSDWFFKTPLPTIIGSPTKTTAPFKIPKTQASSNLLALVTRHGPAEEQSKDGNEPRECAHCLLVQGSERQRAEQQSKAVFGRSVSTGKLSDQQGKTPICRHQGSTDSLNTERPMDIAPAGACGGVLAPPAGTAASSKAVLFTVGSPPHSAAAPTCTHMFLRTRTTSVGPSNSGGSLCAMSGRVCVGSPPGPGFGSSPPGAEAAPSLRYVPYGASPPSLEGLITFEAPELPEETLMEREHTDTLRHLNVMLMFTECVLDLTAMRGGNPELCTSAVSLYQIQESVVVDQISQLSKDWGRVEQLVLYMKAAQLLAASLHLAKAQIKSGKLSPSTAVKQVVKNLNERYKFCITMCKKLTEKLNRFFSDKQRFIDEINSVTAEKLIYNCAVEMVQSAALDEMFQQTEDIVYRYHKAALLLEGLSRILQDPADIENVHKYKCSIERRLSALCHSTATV

[8] = molecular target: Casein kinase II subunit alpha' (Homo sapiens) (UniProt P19784); assay: Selectivity interaction (KinomeScan (DiscoverX)) EUB0001049a CSNK2A2; conditions: at 1 µM
Casein kinase II subunit alpha' (Homo sapiens), sequence (P19784 whole entry, looked up): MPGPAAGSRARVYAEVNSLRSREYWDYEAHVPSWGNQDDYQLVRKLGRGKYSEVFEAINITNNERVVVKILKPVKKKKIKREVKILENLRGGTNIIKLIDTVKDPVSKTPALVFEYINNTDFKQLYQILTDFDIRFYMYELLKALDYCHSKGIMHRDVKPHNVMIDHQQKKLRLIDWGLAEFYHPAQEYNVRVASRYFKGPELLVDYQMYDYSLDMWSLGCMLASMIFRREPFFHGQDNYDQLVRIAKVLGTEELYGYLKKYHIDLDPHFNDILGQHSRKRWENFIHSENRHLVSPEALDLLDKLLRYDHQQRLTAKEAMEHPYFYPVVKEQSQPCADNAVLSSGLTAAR

[9] = molecular target: T2, Serine/threonine-protein kinase RIO3 (Homo sapiens) (UniProt O14730); assay: Selectivity interaction (KinomeScan (DiscoverX)) EUB0001049a RIOK3; conditions: at 1 µM
T2 sequence (whole entry): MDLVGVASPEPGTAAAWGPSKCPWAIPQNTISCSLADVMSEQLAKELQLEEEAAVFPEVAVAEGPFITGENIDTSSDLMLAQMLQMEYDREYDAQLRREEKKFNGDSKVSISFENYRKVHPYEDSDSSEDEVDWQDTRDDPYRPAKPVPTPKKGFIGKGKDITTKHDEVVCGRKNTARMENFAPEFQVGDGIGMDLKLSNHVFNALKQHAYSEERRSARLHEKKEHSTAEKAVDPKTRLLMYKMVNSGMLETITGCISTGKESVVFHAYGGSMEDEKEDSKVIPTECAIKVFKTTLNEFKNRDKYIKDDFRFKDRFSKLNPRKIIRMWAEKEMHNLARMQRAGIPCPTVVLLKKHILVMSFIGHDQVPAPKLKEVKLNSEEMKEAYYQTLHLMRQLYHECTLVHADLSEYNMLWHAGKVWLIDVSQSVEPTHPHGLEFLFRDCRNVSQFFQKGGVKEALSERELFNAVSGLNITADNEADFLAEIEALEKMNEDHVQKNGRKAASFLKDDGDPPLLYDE

[10] = molecular target: Serine/threonine-protein kinase NIM1 (Homo sapiens, UniProt Q8IY84); assay: Selectivity interaction (Ambit KINOMEscan and KiNATiv profiling in Jurkat cells) EUB0000090b NIM1K; type: cell-based; conditions: at 1 µM
Serine/threonine-protein kinase NIM1, sequence (Q8IY84 whole entry): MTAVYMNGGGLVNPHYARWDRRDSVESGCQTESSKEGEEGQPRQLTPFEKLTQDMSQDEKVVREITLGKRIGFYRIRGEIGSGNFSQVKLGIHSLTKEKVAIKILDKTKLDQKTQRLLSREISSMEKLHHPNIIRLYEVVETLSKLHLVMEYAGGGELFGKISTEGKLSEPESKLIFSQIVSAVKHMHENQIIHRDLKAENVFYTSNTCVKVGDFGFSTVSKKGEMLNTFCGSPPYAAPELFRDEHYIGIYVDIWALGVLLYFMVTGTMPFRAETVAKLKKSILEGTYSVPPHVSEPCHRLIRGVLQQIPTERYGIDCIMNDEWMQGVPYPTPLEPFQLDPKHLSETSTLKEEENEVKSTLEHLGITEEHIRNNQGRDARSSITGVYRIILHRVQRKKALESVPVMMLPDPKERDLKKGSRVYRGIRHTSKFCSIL

[11] = molecular target: T3, Serine/threonine-protein kinase Nek3 (Homo sapiens) (UniProt P51956); conditions: at 10 µM
T3 sequence (whole entry): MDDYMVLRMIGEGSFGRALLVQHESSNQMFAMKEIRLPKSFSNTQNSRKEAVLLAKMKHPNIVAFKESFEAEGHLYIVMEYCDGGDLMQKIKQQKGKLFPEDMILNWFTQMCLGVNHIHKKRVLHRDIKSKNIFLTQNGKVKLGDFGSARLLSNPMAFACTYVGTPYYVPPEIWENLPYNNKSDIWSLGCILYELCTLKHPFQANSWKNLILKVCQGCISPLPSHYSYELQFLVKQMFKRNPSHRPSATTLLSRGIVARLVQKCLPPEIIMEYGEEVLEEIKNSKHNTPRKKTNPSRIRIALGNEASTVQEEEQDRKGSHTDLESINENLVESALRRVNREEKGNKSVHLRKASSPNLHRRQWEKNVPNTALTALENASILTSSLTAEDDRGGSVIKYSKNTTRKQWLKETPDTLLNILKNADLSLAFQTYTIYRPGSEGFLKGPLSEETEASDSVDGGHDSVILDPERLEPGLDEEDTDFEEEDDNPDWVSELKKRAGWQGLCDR

% of control [1]: 3.2%
% of control [2]: 3.1%
Structure (SMILES): Cn1cc(-n2cnc3c(NCc4nc5cc(Cl)c(Cl)cc5[nH]4)nc(N4CCOCC4)nc32)cn1

% of control [3]: 100%
Structure (SMILES): CCN(CC)CCCCNc1ncc2cc(-c3cc(OC)cc(OC)c3)c(NC(=O)NC(C)(C)C)nc2n1

% of inhibition ([4]; at 0.01 µM): -1%
% of inhibition ([4]; at 0.04 µM): -2%
% of inhibition ([4]; at 0.2 µM): 1.3%
% of inhibition ([4]; at 1 µM): 7.2%
% of inhibition ([4]; at 5 µM): -13.1%
% of inhibition [5]: 14.5%
Structure (SMILES): CC[C@@H]1[C@H](F)C(=O)N[C@@H]1COc1nccc2cc(C(N)=O)c(OC)cc12 [ZIMLOVISERTIB]

% of control ([6]; at 1 µM): 95%
% of control ([6]; at 5 µM): 92%
Structure (SMILES): C=CC(=O)Nc1cccc(C(=O)Nc2ccc(Nc3cc(-c4[nH]c(SC)nc4C)ccn3)cc2)c1

Structure (SMILES): COc1cc(Nc2nc(C)cc(-c3cnn4nc(OC)ccc34)n2)cc(C(F)(F)F)c1
% of control [7]: 92%
% of control [8]: 59%
% of control [9]: 86%

Structure (SMILES): CN(C)C/C=C/C(=O)Nc1ccc(C(=O)N2CCCC(Nc3ncc(Cl)c(-c4c[nH]c5ccccc45)n3)C2)cc1 (stereo unspecified)
% of control [10]: 93%

Structure (SMILES): Cc1cc([C@@H](C)Nc2ccccc2C(=O)O)c2nc(N3CCOCC3)cc(=O)n2c1 [AZD-6482]
% of control [11]: 100%
